# Results reported in patent publication US11278530B2, “Polycyclic amides as muscarinic M1 receptor positive allosteric modulators” (SUVEN LIFE SCIENCES LIMITED, priority 2017, dated 2022).
# Target: T1, recombinant human Muscarinic M1 receptor (Homo sapiens, UniProt P11229)
# T1 sequence (P11229 1-460): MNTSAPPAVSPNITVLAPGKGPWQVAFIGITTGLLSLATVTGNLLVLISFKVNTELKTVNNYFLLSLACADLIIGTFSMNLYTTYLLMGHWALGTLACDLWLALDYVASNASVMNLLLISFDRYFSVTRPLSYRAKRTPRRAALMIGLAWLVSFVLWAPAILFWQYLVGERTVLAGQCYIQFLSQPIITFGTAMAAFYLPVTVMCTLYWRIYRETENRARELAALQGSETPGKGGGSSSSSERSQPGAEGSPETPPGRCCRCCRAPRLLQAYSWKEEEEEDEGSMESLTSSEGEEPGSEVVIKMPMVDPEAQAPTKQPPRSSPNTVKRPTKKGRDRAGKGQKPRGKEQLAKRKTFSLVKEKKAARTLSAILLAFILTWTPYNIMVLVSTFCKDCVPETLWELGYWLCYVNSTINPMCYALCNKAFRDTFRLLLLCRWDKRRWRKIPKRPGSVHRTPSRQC
# Assay: Allosteric potency EC50 for Muscarinic M1 receptor, CHO pCRE-Luc reporter cell-based assay with EC20 of acetylcholine
# Details: CHO cells, human M1, luciferase reporter, in presence of EC20 of acetylcholine, 4 h
# Experimental: Determination of allosteric potency EC50 values for Muscarinic M1 receptor:
# A stable CHO cell line expressing recombinant human Muscarinic M1 receptor and pCRE-Luc reporter system was used for cell-based assay. The assay offers a non-radioactive based approach to determine binding of a compound to GPCRs. In this specific assay, the level of intracellular cyclic AMP which is modulated by activation or inhibition of the receptor is measured. The recombinant cells harbor luciferase reporter gene under the control of cAMP response element.
# The above cells were grown in 96 well clear bottom white plates in Hams F12 medium containing 10% fetal bovine serum (FBS). Prior to the addition of compounds or standard agonist, cells were serum starved overnight. Increasing concentrations of test compounds were added along with EC20 of acetylcholine in OptiMEM medium to the cells. The incubation was continued at 37° C. in CO2 incubator for 4 h. Medium was removed and cells were washed with phosphate buffered saline. The cells were lysed and luciferase activity was measured in a Luminometer. Luminescence counts in each concentrations of test item were normalized to the acetylcholine induced maximum response and the data was analyzed using Graphpad software. EC50 values of the compounds were defined as the concentration required in stimulating the luciferase activity by 50% in presence of EC20 of acetylcholine.
row,EC50,SMILES
1,249 nM,"Cc1c(Cc2ccc(-c3cscn3)cc2)cc(C(=O)N[C@H]2CCOC[C@@H]2O)c2ncccc12 [Example 13, N-(cis-3S,4S-3-Hydroxytetrahydropyran-4-yl)-6-(4-thiazol-4-yl-benzyl)-5-methylquinoline-8-carboxamide]"
2,237 nM,"Cc1c(Cc2ccc(-c3cnn(C)c3)nc2)cc(C(=O)N[C@@H]2CCCC[C@H]2O)c2nc[nH]c12 [Example 35, N-(cis-1S,2S-2-Hydroxycyclohexyl)-7-methyl-6-[6-(1-methyl-1H-pyrazol-4-yl)-pyridin-3-ylmethyl]-1H-benzimidazole-4-carboxamide]"
3,2280 nM,"Cc1c(Cc2ccc(F)c(F)c2)cc(C(=O)N[C@@H]2CCCC[C@H]2O)c2nc[nH]c12 [Example 34, N-(cis-1S,2S-2-Hydroxycyclohexyl)-7-methyl-6-[3,4-difluorobenzyl]-1H-benzimidazole-4-carboxamide]"
4,444 nM,"Cn1cc(-c2ccc(Cc3cc(C(=O)N[C@H]4CCCC[C@@H]4O)c4nccn4c3)cc2)cn1 [Example 25, N-(cis-1S,2S-2-Hydroxycyclohexyl)-6-[4-(1-methyl-1H-pyrazol-4-yl)-benzyl]-imidazo[1,2-a]pyridine-8-carboxamide]"
5,10000 nM,"Cc1c(Cc2ccc(-c3cnn(C)c3)cc2)cc(C(=O)N[C@@H]2CCCC[C@H]2O)c2c1ncn2C [Example 42, N-(cis-1S,2S-2-Hydroxycyclohexyl)-3,7-dimethyl-6-[4-(1-methyl-1H-pyrazol-4-yl)-benzyl]-3H-benzimidazole-4-carboxamide]"
6,151 nM,"Cc1c(Cc2ccc(-c3cnn(C)c3)cc2F)cc(C(=O)N[C@@H]2CCCC[C@H]2O)c2nc[nH]c12 [Example 30, N-(cis-1S,2S-2-Hydroxycyclohexyl)-7-methyl-6-[2-fluoro-4-(1-methyl-1H-pyrazol-4-yl)-benzyl]-1H-benzimidazole-4-carboxamide]"
7,1460 nM,"Cc1c(Cc2ccc(-c3cnn(C)c3)c(F)c2F)cc(C(=O)N[C@@H]2CCCC[C@H]2O)c2c1ncn2C [Example 43, N-(cis-1S,2S-2-Hydroxycyclohexyl)-3,7-dimethyl-6-[2,3-difluoro-4-(1-methyl-1H-pyrazol-4-yl)-benzyl]-3H-benzimidazole-4-carboxamide]"
8,208 nM,"Cc1c(Cc2ccc(-c3cnn(C)c3)nc2)cc(C(=O)N[C@@H]2CCCC[C@H]2O)c2c1ncn2C [Example 44, N-(cis-1S,2S-2-Hydroxycyclohexyl)-3,7-dimethyl-6-[6-(1-methyl-1H-pyrazol-4-yl)-pyridin-3-ylmethyl]-3H-benzimidazole-4-carboxamide]"
9,3660 nM,"Cc1c(Cc2cccc(F)c2F)cc(C(=O)N[C@@H]2CCCC[C@H]2O)c2nc[nH]c12 [Example 33, N-(cis-1S,2S-2-Hydroxycyclohexyl)-7-methyl-6-[2,3-difluorobenzyl]-1H-benzimidazole-4-carboxamide]"
10,2340 nM,"Cc1c(Cc2ccccc2F)cc(C(=O)N[C@H]2CCCC[C@@H]2O)c2ncccc12 [Example 5, N-(cis-1S,2S-2-Hydroxycyclohexyl)-6-(2-fluorobenzyl)-5-methylquinoline-8-carboxamide]"
11,308 nM,"O=C(N[C@H]1CCCC[C@@H]1O)c1cc(Cc2ccc(-c3cscn3)cc2)cn2ccnc12 [Example 23, N-(cis-1S,2S-2-Hydroxycyclohexyl)-6-(4-thiazol-4-yl-benzyl)-imidazo[1,2-a]pyridine-8-carboxamide]"
12,960 nM,"Cc1c(Cc2ccnc(F)c2)cc(C(=O)N[C@H]2CCCC[C@@H]2O)c2ncccc12 [Example 4, N-(cis-1S,2S-2-Hydroxycyclohexyl)-6-(2-fluoropyridin-4-ylmethyl)-5-methylquinoline-8-carboxamide]"
13,3820 nM,"O=C(N[C@H]1CCCC[C@@H]1O)c1cc(Cc2cccc(F)c2F)cn2ccnc12 [Example 22, N-(cis-1S,2S-2-Hydroxycyclohexyl)-6-(2.3-difluorobenzyl)-imidazo[1,2-a]pyridine-8-carboxamide]"
14,3910 nM,"O=C(N[C@H]1CCCC[C@@H]1O)c1cc(Cc2ccc(-c3ccccc3)cc2)cn2ccnc12 [Example 24, N-(cis-1S,2S-2-Hydroxycyclohexyl)-6-(4-phenyl-benzyl)-imidazo[1,2-a]pyridine-8-carboxamide]"
15,248 nM,"Cc1c(Cc2ccc(-c3cnn(C)c3)cc2)cc(C(=O)N[C@H]2CCCC[C@@H]2O)c2nccn12 [Example 18, N-(cis-1S,2S-2-Hydroxycyclohexyl)-5-methyl-6-[4-(1-methyl-1H-pyrazol-4-yl)-benzyl]-imidazo[1,2-a]pyridine-8-carboxamide]"
16,185 nM,"Cc1c(Cc2ccc(-c3cnn(C)c3)c(F)c2)cc(C(=O)N[C@H]2CCCC[C@@H]2O)c2ncccc12 [Example 9, N-(cis-1S,2S-2-Hydroxycyclohexyl)-6-[3-fluoro-4-(1-methyl-1H-pyrazol-4-yl)-benzyl]-5-methylquinoline-8-carboxamide]"
17,597 nM,"Cn1cc(-c2ccc(Cc3cc(C(=O)N[C@H]4CCCC[C@@H]4O)c4[nH]cnc4c3)c(F)c2F)cn1 [Example 37, N-(cis-1S,2S-2-Hydroxycyclohexyl)-6-[2,3-difluoro-4-(1-methyl-1H-pyrazol-4-yl)-benzyl]-1H-benzimidazole-4-carboxamide]"
18,798 nM,"Cc1c(Cc2ccc(-c3cnn(C)c3)cc2)cc(C(=O)N[C@H]2CCCC[C@@H]2O)c2c1NCCO2 [Example 16, N-(cis-1S,2S-2-Hydroxycyclohexyl)-6-[4-(1-methyl-1H-pyrazol-4-yl)-benzyl]-5-methyl-3,4-dihydro-2H-benzo[1,4]oxazine-8-carboxamide]"
19,28 nM,"Cc1c(Cc2ccc(-c3cnn(C)c3)cc2F)cc(C(=O)N[C@H]2CCCC[C@@H]2O)c2nccn12 [Example 20, N-(cis-1S,2S-2-Hydroxycyclohexyl)-5-methyl-6-[2-fluoro-4-(1-methyl-1H-pyrazol-4-yl)-benzyl]-imidazo[1,2-a]pyridine-8-carboxamide]"
20,465 nM,"Cc1c(Cc2ccc(-c3cnn(C)c3)c(F)c2F)cc(C(=O)N[C@H]2CCCC[C@@H]2O)c2[nH]cnc12 [Example 36, N-(cis-1S,2S-2-Hydroxycyclohexyl)-7-methyl-6-[2,3-difluoro-4-(1-methyl-1H-pyrazol-4-yl)-benzyl]-1H-benzimidazole-4-carboxamide]"
21,1060 nM,"Cc1c(Cc2ccc(-c3cnn(C)c3)cc2F)cc(C(=O)N[C@@H]2CCCC[C@H]2O)c2c1ncn2C [Example 41, N-(cis-1S,2S-2-Hydroxycyclohexyl)-3,7-dimethyl-6-[2-fluoro-4-(1-methyl-1H-pyrazol-4-yl)-benzyl]-3H-benzimidazole-4-carboxamide]"
22,1240 nM,"Cc1c(Cc2ccc(Cl)nc2)cc(C(=O)NC2CCOC[C@@H]2O)c2ncccc12 (stereo partly drawn) [Example 3, N-(cis-3S,4S-3-Hydroxytetrahydropyran-4-yl)-6-(2-chloropyridin-5-ylmethyl)-5-methylquinoline-8-carboxamide]"
23,694 nM,"Cc1nc2c(C(=O)N[C@H]3CCCC[C@@H]3O)cc(Cc3ccc(-n4cccn4)cc3)c(C)c2[nH]1 [Example 38, N-(cis-1S,2S-2-Hydroxycyclohexyl)-2,7-dimethyl-6-(4-pyrazol-1-yl-benzyl)-1H-benzimidazole-4-carboxamide]"
24,105 nM,"Cc1c(Cc2ccc(-c3cnn(C)c3)cc2)cc(C(=O)N[C@H]2CCCC[C@@H]2O)c2nc[nH]c12 [Example 28, N-(cis-1S,2S-2-Hydroxycyclohexyl)-7-methyl-6-[4-(1-methyl-1H-pyrazol-4-yl)-benzyl]-1H-benzimidazole-4-carboxamide]"
25,895 nM,"Cc1nc2c(C(=O)N[C@H]3CCCC[C@@H]3O)cc(Cc3ccc(-c4cnn(C)c4)cc3)c(C)c2[nH]1 [Example 39, N-(cis-1S,2S-2-Hydroxycyclohexyl)-2,7-dimethyl-6-[4-(1-methyl-1H-pyrazol-4-yl)-benzyl]-1H-benzimidazole-4-carboxamide]"
26,3340 nM,"Cn1cc(-c2ccc(Cc3cc(C(=O)N[C@H]4CCCC[C@@H]4O)c4nccn4c3)c(F)c2)cn1 [Example 26, N-(cis-1S,2S-2-Hydroxycyclohexyl)-6-[2-fluoro-4-(1-methyl-1H-pyrazol-4-yl)-benzyl]-imidazo[1,2-a]pyridine-8-carboxamide]"
27,516 nM,"Cc1c(Cc2ccc(-c3cscn3)cc2)cc(C(=O)N[C@@H]2CCCC[C@H]2O)c2nc[nH]c12 [Example 32, N-(cis-1S,2S-2-Hydroxycyclohexyl)-7-methyl-6-[4-(thiazol-4-yl)-benzyl]-1H-benzimidazole-4-carboxamide]"
28,232 nM,"Cc1c(Cc2ccc(-c3cnn(C)c3)nc2)cc(C(=O)N[C@H]2CCCC[C@@H]2O)c2ncccc12 [Example 7, N-(cis-1S,2S-2-Hydroxycyclohexyl)-6-[2-(1-methyl-1H-pyrazol-4-yl)-pyridin-5-ylmethyl]-5-methylquinoline-8-carboxamide]"
